Assay results taken from patent US8642765B2, “Azaindole-indole coupled derivatives, preparation methods and uses thereof” (priority 2007, dated 2014).
Where two headings read alike, the source gives them in different places.

Experiments:
[1] = tested on: human lung adenocarcinoma cell line A549; test: MTT growth inhibition of A549 cells; type: cell-based; details: read-out: IC50 (μM) Tumor cells A549
Experimental: (§1) The drugs were formulated into a stock solution in DMSO, and the concentration of the stock solution was 20 mmol (used within 4 hours). In the experiment, the work solution of the drugs was diluted with RPM11640 medium containing 10% calf serum under aseptic condition, to a final concentration of 80 μM. The drug concentrations were increased by 2 times (1.25-20 μM).
(§2) The DU145 cell in logarithmic growth phase were selected, centrifuged, counted, and formulated into a cell suspension (2.5×10^4/ml) with RPM11640 medium containing 10% calf serum. The cell suspension were inoculated into 96-well plates at a density of 5000 cells/200 μl per well, incubated for 24 hours at 37° C., 5% CO2. According to the above concentration of the drug, the cells were inoculated to 6 groups (including one control group), with 8 wells per group. After incubating for 72 hours, the viability of cells was measured by MTT assay. The absorbance value (A) was measured with detection wavelength at 540 nm, reference wavelength at 630 nm. The inhibitory rate (I) was calculated by the following equation, where T was the absorbance value of the experimental groups, and C was the absorbance value of the blank control group: I=(1−T/C)×100%
(§3) The regression equation was calculated by the concentration-inhibitory rate curve, to obtain 50% and 90% inhibition concentration (IC50 and IC90, μM).
(§4) 1. Tumor Cells: human hepatoma cell lines 7701 QGY and HepG-2, human lung adenocarcinoma cell line A549, human chronic myelocytic leukemia cell line K562, human leukemia cell line CEM and mouse melanoma cell line K111.
(§5) 2. Using the methods described in example 2, the biological activity of a portion of newly synthesized 5- or 7-azaindirubin derivatives and 5- or 7-azaisoindigo derivatives (20 compounds) for inhibiting various tumor cells growth were determined.

[2] = tested on: human chronic myelocytic leukemia cell line K562; test: MTT growth inhibition of K562 cells; type: cell-based; details: read-out: IC50 (μM) Tumor cells K562
Experimental: as §1, §2, §3, §4, §5

[3] = tested on: human hepatoma cell line HepG-2; test: MTT growth inhibition of HepG-2 cells; type: cell-based; details: HepG-2, MTT, read-out: IC50 (μM) Tumor cells HepG-2
Experimental: as §1, §2, §3, §4, §5

[4] = tested on: endogenous cyclin-dependent inhibitor p27; test: Western blot of p27 in DU145 cells; type: cell-based, human; details: DU145, treated for 24 hours, FIG. 3
Description: (§6) Reagents: The tested compounds were the same as example 2. Unless otherwise indicated, other chemical reagents were purchased from Sigma Chemical Company (USA). Polyacrylamide gel used in protein electrophoresis, SDS, electrophoresis buffer, transfer buffer protein, nitrocellulose membrane were purchased from American Bio-Rad Life Science Company. Western blotting detection kits and films were purchased from American GE Company. Phospho-CDK2^Thr160 antibody, endogenous cyclin-dependent inhibitor p27 antibody, CyclinD1 and β-Actin antibody were purchased from American Cell Signaling Inc., DAKO and Santa Cruz Biochemical Technology Company.
(§7) Tumor cells and methods for cell culture were the same as example 2.
(§8) Phospho-Cdc2, p27, and Cyclin D1 were Detected by Western Blot: The human prostate cancer cell lines DU145 at logarithmic growth phase were treated with compounds No. 124 and No. 126 (concentration is shown in FIG. 3) for 24 hours. The cells were harvested and washed. Total cellular proteins were extracted and quantified as described previously^[14]. 50 μg of protein was separated on a SDS-PAGE, electro-transferred to nitrocellulose filters. Western blot were performed using specific antibodies against Phospho-CDK2, endogenous cyclin-dependent inhibitor p27 and CyclinD1, with β-Actin antibody as an internal standard. The result was recorded by ECL films.

[5] = tested on: phospho-CDK2^Thr160; test: Western blot of phospho-CDK2 in DU145 cells; type: cell-based, human; details: DU145, treated for 24 hours, FIG. 3
Description: as §6, §7, §8

[6] = tested on: mouse melanoma cell line K111; test: MTT growth inhibition of K111 cells; type: cell-based; details: Klll, read-out: IC50 (μM) Tumor cells Klll
Experimental: as §1, §2, §3, §4, §5

[7] = tested on: DU145 tumor cells; test: MTT growth inhibition of DU145 cells, 72 h; type: cell-based, human; details: for IC50 / IC90: DU145, 72 h, MTT; for growth inhibitory effects on tumor cells (in words): discussion of the MTT assay, DU145
Experimental: DU145 cells were inoculated in RPM11640 medium containing 10% calf serum, incubated at 37° C., 5% CO2 in CO2 incubator, and passaged every 2-3 days. In this experiment, cells were grown in logarithmic growth phase.
In the experiment, the cells at logarithmic growth phase were formulated into suspension, and the viability by trypan blue staining was more than 98%. The suspension was divided into several groups: 1 as blank control group (cell suspension); and 2 as experimental groups (cell suspension plus drugs).
as §1, §2, §3

[8] = tested on: human hepatoma cell line 7701 QGY; test: MTT growth inhibition of 7701 QGY cells; type: cell-based; details: read-out: IC50 (μM) Tumor cells 7701 QGY
Experimental: as §1, §2, §3, §4, §5

[9] = tested on: human leukemia cell line CEM; test: MTT growth inhibition of CEM cells; type: cell-based; details: read-out: IC50 (μM) Tumor cells CEM
Experimental: as §1, §2, §3, §4, §5

[10] = tested on: Cyclin D1; test: Western blot of Cyclin D1 in DU145 cells; type: cell-based, human; details: DU145, treated for 24 hours, FIG. 3
Description: as §6, §7, §8

[11] = Safety profile (stated in the discussion, no method described); details: discussion of Example 2; no data shown
[12] = Solubility assay in solvents; type: physicochemical; details: for solubility in Acetone / solubility in deionized water / solubility in ethanol / solubility in methanol / solubility in petroleum ether (boiling range: 60~90° C.) / solubility in trichlormethane: 5 mg in 2 ml solvent, room temperature (20° C.); for change of lipid solubility / change of water solubility: 129 relative to 91, 91 relative to indirubin
Experimental: Testing Methods: 5 mg of the compound no. 129 and 91 were respectively added into 2 ml solvent at room temperature (20° C.), and stirred to dissolve.

[13] = Homo sapiens, DU-145, 72 h, Table 6
[14] = Homo sapiens, DU-145, 72 h, Table 5

Row | SMILES | IC50 [1] | IC50 [2] | IC50 [3] | IC50 [6] | IC50 ([7]; Table 6) | IC90 ([7]; Table 6) | IC50 [8] | IC50 [9] | other results
1 | CC(C)N1C(=O)C(=C2C(=O)Nc3ccccc32)c2cccnc21 [Compound 164, 1-isopropyl-7-azaisoindigo] | 23.3 µM | 18.6 µM | 29 µM | 9.1 µM | 9.05 µM | 19 µM | 33.1 µM | 12.7 µM | –
2 | CC(C)N1C(=O)C(=C2Nc3ccc(Br)cc3C2=NO)c2cnccc21 [Compound 30] | – | – | – | – | – | – | – | – | IC50 ([7]; Table 5): 3.3 µM; IC90 ([7]; Table 5): 7 µM; growth inhibitory effects on tumor cells (in words) [7]: relatively significant growth inhibitory effects; safety profile [11]: good safety profile
3 | CCCCN1C(=O)C(=C2Nc3ccccc3C2=O)c2cccnc21 [Compound 99] | 18.4 µM | 6.7 µM | 29.3 µM | 10.1 µM | 11.5 µM | 87 µM | 12.4 µM | 7.1 µM | –
4 | CCN1C(=O)/C(=C2\Nc3ccccc3\C2=N/O)c2cccnc21 [Compound 129] | – | – | – | – | – | – | – | – | IC50 ([1]; Homo sapiens): 14.1 µM; IC50 ([2]; Homo sapiens): 3.4 µM; solubility in Acetone [12]: slightly soluble; solubility in deionized water [12]: slightly soluble; solubility in ethanol [12]: slightly soluble; solubility in methanol [12]: soluble; solubility in petroleum ether (boiling range: 60~90° C.) [12]: insoluble; solubility in trichlormethane [12]: slightly soluble; change of lipid solubility [12]: decreased; change of water solubility [12]: increased; IC50 ([3]; Homo sapiens, HepG2): 13 µM; IC50 ([6]; Mus musculus): 4.2 µM; IC50 [7, 13]: 3.8 µM; IC90 [7, 13]: 12 µM; IC50 ([8]; Homo sapiens): 7.4 µM; IC50 ([9]; Homo sapiens, CCRF-CEM): 7 µM
5 | CCCCN1C(=O)C(=C2C(=O)Nc3ccc(Br)cc32)c2cccnc21 [Compound 170] | 19.5 µM | 10.3 µM | 25 µM | 18.5 µM | 15 µM | 90 µM | 28 µM | 8.5 µM | –
6 | CCN1C(=O)/C(=C2\Nc3ccccc3\C2=N/O)c2ccccc21 [Compound 91, 1-ethyl-indirubin-3′-oxime, reference compound] | – | – | – | – | – | – | – | – | solubility in Acetone [12]: easily soluble; solubility in deionized water [12]: insoluble; solubility in ethanol [12]: dissoluble; solubility in methanol [12]: slightly soluble; solubility in petroleum ether (boiling range: 60~90° C.) [12]: slightly soluble; solubility in trichlormethane [12]: easily soluble; change of lipid solubility [12]: increased; change of water solubility [12]: decreased; IC50 [7, 14]: 4.2 µM; IC90 [7, 14]: 21.8 µM; IC50 [7, 13]: 4.1 µM; IC90 [7, 13]: 22 µM
7 | O=C1C(=C2C(=O)N(Cc3ccccc3)c3ncccc32)Nc2ccc(Br)cc21 [Compound 109, 1-benzyl-5′-bromo-7-azaindirubin] | 15.8 µM | 12.5 µM | 21.2 µM | 18.6 µM | 7 µM | 24 µM | 10 µM | 9 µM | –
8 | COc1ccc2c(c1)C(=O)C(=C1C(=O)N(C)c3ncc(C)cc31)N2 [Compound 95] | 35.2 µM | 8.1 µM | 50.1 µM | 15.6 µM | 400 µM | > 100 µM | 23.9 µM | 9 µM | –

Continued, in another order:

Row | IC50 [1] | IC50 [2] | IC50 [3] | IC50 [6] | IC50 ([7]; Table 6) | IC90 ([7]; Table 6) | IC50 [8] | IC50 [9] | SMILES | other results
9 | 9.6 µM | 5.1 µM | 16.3 µM | 14.2 µM | 7.1 µM | 19 µM | 11.2 µM | 8.1 µM | O=C1C(=C2Nc3ccc(Cl)cc3C2=NO)c2cccnc2N1Cc1ccccc1 [Compound 126] | expression of endogenous cyclin-dependent inhibitor p27 [4]: significantly increased; level of CDK2 activity (phosphorylation) [5]: decreased in a dose-dependent manner; protein expression of cyclin D1 [10]: significantly decreased
10 | – | – | – | – | 1.8 µM | 12 µM | – | – | CCCCN1C(=O)C(=C2Nc3ccc(Cl)cc3C2=NO)c2cccnc21 [Compound 124] | expression of endogenous cyclin-dependent inhibitor p27 [4]: significantly increased; level of CDK2 activity (phosphorylation) [5]: decreased in a dose-dependent manner; growth inhibitory effects on tumor cells (in words) [7]: relatively significant growth inhibitory effects; safety profile [11]: good safety profile; protein expression of cyclin D1 [10]: significantly decreased
11 | 8.5 µM | 7.9 µM | 8.1 µM | 8.1 µM | 4 µM | 12 µM | 13.5 µM | 9 µM | CCN1C(=O)C(=C2Nc3ccc(Br)cc3C2=NO)c2cccnc21 [Compound 119] | –
12 | 19.6 µM | 20.4 µM | 18 µM | 14 µM | 18.5 µM | 100 µM | 28 µM | 10.2 µM | CC(C)N1C(=O)C(=C2Nc3ccc(Cl)cc3C2=O)c2cccnc21 [Compound 106] | –
13 | 12.5 µM | 8.2 µM | 20.5 µM | 6.3 µM | 6.9 µM | 16 µM | 11.1 µM | 5.6 µM | CN1C(=O)C(=C2Nc3ccc(Cl)cc3C2=NO)c2cccnc21 [Compound 116] | growth inhibitory effects on tumor cells (in words) [7]: relatively significant growth inhibitory effects
14 | 22.8 µM | 9.5 µM | 41.5 µM | 18.2 µM | 8 µM | 18 µM | 39.5 µM | 7 µM | CN1C(=O)C(=C2Nc3ccc(Cl)cc3C2=O)c2cccnc21 [Compound 102] | –
15 | 18.1 µM | 11.5 µM | 16 µM | 6 µM | 3.1 µM | 29 µM | 14.9 µM | 11.3 µM | CC(C)N1C(=O)C(=C2Nc3ccc(Br)cc3C2=NO)c2cccnc21 [Compound 121] | growth inhibitory effects on tumor cells (in words) [7]: relatively significant growth inhibitory effects; safety profile [11]: good safety profile
16 | 21.6 µM | 7.8 µM | 28.8 µM | 23 µM | 11.5 µM | 60 µM | 15 µM | 12 µM | CN1C(=O)C(=C2Nc3ccc(Br)cc3C2=O)c2cccnc21 [Compound 101] | –
